Columns and labels:
[1] = cited from earlier work
[2] = tested on: MOLP-8 human multiple myeloma xenografts; assay: MOLP-8 xenograft in CB.17 SCID mice, single bolus iv (Xenograft Mouse Experiments A, Part I); assay type: in vivo; conditions: nBT062 […], all others 250 μg/kg (maytansinoid)
Protocol: The conjugates were evaluated in a CD138-positive xenograft model (MOLP-8) of human multiple myeloma in severe combined immunodeficient (SCID) mice.
In these mice, subcutaneous tumors were established (female CB.17 SCID mice) by inoculation with MOLP-8 cell suspensions. Treatment with a single bolus intravenous injection was conducted when tumor volumes reached an average 113 mm^3. Changes in tumor volume and body weight were monitored twice per week.
Each mouse was inoculated with 1×10^7 MOLP-8 cells subcutaneously into the area under the right shoulder. The total volume was 0.2 ml per mouse, in which the ratio of serum-free medium to matrigel (BD Bioscience, Bedford, Mass.) was 1/1 (v/v). Prior to treatment, the xenograft tumors were monitored daily and were allowed to become established.
Eleven days after tumor cell inoculation, 42 mice were selected based on tumor volumes and body weights. […] The forty-two mice were randomly divided into seven groups (A-G) of six animals each based on tumor volume.
Each of six mice in Group A received 200 μl of PBS as vehicle control.
All agents were intravenously administered as a single bolus injection through a lateral tail vein with a 1 ml syringe fitted with a 27 gauge, ½ inch needle.

RPMI 8226 = assay: Combination with BT062 in cell lines (Chou and Talalay median effect analysis); assay type: cell-based; conditions: RPMI 8226 cells
Protocol: Combination studies in xenograph mouse models were preceded by studies in cell lines. […] Here, IC50 values for the cytotoxic effects for each drug and each cell line are calculated, and then IC50 ratios for each drug pair. The cells were then exposed to dilution series of either these drug mixtures, or the drugs alone. Experimental data were analyzed using the CompuSyn software (ComboSyn, Inc., Paramus, N.J.). Combination Indexes (CI) for each independent experiment were calculated and reported separately. In the analysis, CI less than 1, equal to 1 and more than 1 indicates synergy, additivity and antagonism, respectively. According to the classification of T. C.

MOLP8 = assay: as above; assay type: cell-based, human; conditions: MOLP8 cells
[3] = tested on: MOLP8 multiple myeloma cells; assay: MOLP8 xenograft: BT062 and VELCADE combination therapy; assay type: in vivo, mouse; conditions: for Fractional tumor volume (FTV): Velcade alone, dosed days 1, 4, 8 and 11
MOLP-8 tumor xenografts = conditions: 450 μg/kg dose; mean time to reach 160 mm^3 minus control
[4] = tested on: CD56-positive multiple myeloma; conditions: 1 patient each at 60, 90 and 112 mg/m^2/week; heavily pretreated; cited from earlier work
[5] = Velcade 1 mg/kg days 1, 4, 8, 11

Question: For `COc1cc2cc(c1Cl)N(C)C(=O)C[C@H](OC(=O)[C@H](C)N(C)C(=O)CCS)[C@]1(C)O[C@H]1[C@H](C)[C@@H]1C[C@@](O)(NC(=O)O1)[C@H](OC)/C=C/C=C(\C)C2` [DM1, N^2-deacetyl-N^2-(3-mercapto-1-oxopropyl)-maytansine], which “cytotoxicity relative to maytansine” value ([1]; more cytotoxic than maytansine) is on record?
Answer: 3- to 10 fold

Question: For `COc1cc2cc(c1Cl)N(C)C(=O)C[C@H](OC(=O)[C@H](C)N(C)C(=O)CCC(C)(C)S)[C@]1(C)O[C@H]1[C@H](C)[C@@H]1C[C@@](O)(NC(=O)O1)[C@H](OC)/C=C/C=C(\C)C2` [DM4, N^2′-deacetyl-N^2′-(4-methyl-4-mercapto-1-oxopentyl)-maytansine, reference compound], which “effect on tumor growth” value [2] is on record?
Answer: did not cause any significant inhibition of tumor growth

Question: For `Nc1cccc2c1CN(C1CCC(=O)NC1=O)C2=O` (centres unmarked) [Lenalidomide], which “estimate of synergy, drug combined with BT062” value (shortened to “estimate of synergy”) (RPMI 8226) is on record?
Answer: Synergistic

Question: For `O=C1CCC(N2C(=O)c3ccccc3C2=O)C(=O)N1` (stereo not drawn) [Thalidomide, α-(N-phthalimido) glutarimide], which “estimate of synergy” value (MOLP8) is on record?
Answer: antagonistic effect

Question: Which “estimate of synergy” value (MOLP8; listed as Bortezomib) does the source give for `CC(C)C[C@H](NC(=O)[C@H](Cc1ccccc1)NC(=O)c1cnccn1)B(O)O` [Velcade, reference compound] here?
Answer: Slightly antagonistic

Question: And the “estimate of synergy” value (MOLP8; listed as bortezomib)?
Answer: antagonistic effect

Question: What about the “effect on tumor volume” value ([3]; VELCADE treatment alone (FIG. 29)) of the same molecule?
Answer: no effect on the tumor volume

Question: And the “(T-C)” value [3, 5]?
Answer: 0.5 days

Question: And the “Regressions Complete” value [3, 5]?
Answer: 0/6

Question: What about the “Regressions Partial” value [3, 5] of the same molecule?
Answer: 0/6

Question: And the Result [3, 5]?
Answer: Inactive

Question: What about the “T/C (%)” value [3, 5] of the same molecule?
Answer: 100%

Question: And the “Tumor free survivors day 67” value [3, 5]?
Answer: 0/6

Question: What about the log cell kill [3, 5] of the same molecule?
Answer: 0.0

Question: What about the “Fractional tumor volume (FTV)” value ([3]; day 14) of the same molecule?
Answer: 0.84

Question: And the “Fractional tumor volume (FTV)” value ([3]; day 18)?
Answer: 0.96

Question: What about the “Fractional tumor volume (FTV)” value ([3]; day 21) of the same molecule?
Answer: 0.80

Question: What about the “Fractional tumor volume (FTV)” value ([3]; day 25) of the same molecule?
Answer: 0.95

Question: And the “combination effect with BT062 in xenograft model” value ([3]; day 25, all BT062 dose regimens)?
Answer: synergistic

Question: For `COc1cc2cc(c1Cl)N(C)C(=O)C[C@H](OC(=O)[C@H](C)N(C)C(C)=O)[C@]1(C)O[C@H]1[C@H](C)[C@@H]1C[C@@](O)(NC(=O)O1)[C@H](OC)/C=C/C=C(\C)C2` [maytansine], which “cytotoxicity relative to Vinca alkaloids or taxol” value ([1]; higher than anti-cancer drugs in clinical use that affect tubulin polymerization) is on record?
Answer: 200-1000 fold

Question: Which “effect on tumor growth” value [2] does the source give for B-B4-SPP-DM1 [reference compound] here?
Answer: marked delay in tumor growth

Question: With nBT062-DM1 as the molecule, how does the “TGD (tumor growth delay)” value (MOLP-8 tumor xenografts) read?
Answer: 18 days

B1: IMGN901 (conjugate, chains of the INN, looked up)
VH: QVQLVESGGGVVQPGRSLRLSCAASGFTFSSFGMHWVRQAPGKGLEWVAYISSGSFTIYYADSVKGRFTISRDNSKNTLYLQMNSLRAEDTAVYYCARMRKGYAMDYWGQGTLVTVSS
VL: DVVMTQSPLSLPVTLGQPASISCRSSQIIIHSDGNTYLEWFQQRPGQSPRRLIYKVSNRFSGVPDRFSGSGSGTDFTLKISRVEAEDVGVYYCFQGSHVPHTFGQGTKVEIK
modifications: mertansine (DM1) conjugate
Question: Which “patients with confirmed minor response (MR)” value [4] does the source give for B1 here?
Answer: 3 patients

From patent US9289509B2, “Uses of immunoconjugates targeting CD138” (Biotest AG, priority 2009, dated 2016)
